In experiment [1] the test system is LOX. Set-up: method as in PMID 6131892. Conditions: cited from earlier work.
Experiment [2] concerns the target T1, Lysyl oxidase (LOX) (Bos taurus, UniProt P33072).
T1 construct: LOX was isolated from bovine aorta; from tissue; host or cells: bovine aorta
T1 sequence (P33072 170-418): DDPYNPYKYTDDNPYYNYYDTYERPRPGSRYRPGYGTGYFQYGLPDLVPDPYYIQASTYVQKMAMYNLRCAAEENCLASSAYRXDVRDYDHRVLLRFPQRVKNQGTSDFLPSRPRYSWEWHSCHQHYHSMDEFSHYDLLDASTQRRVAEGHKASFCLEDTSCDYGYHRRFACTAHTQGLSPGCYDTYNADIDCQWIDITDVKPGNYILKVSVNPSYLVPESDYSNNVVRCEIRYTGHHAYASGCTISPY
Briefly: LOX activity assay (Amplex UltraRed/HRP fluorescence) after preincubation of enzyme with inhibitor. The following applies: for IC50 / Selectivity factor (LOX IC50 value divided by LSDAO IC50 value): 10-min preincubation; for IC50: 37 °C, read-out: IC50 LOX; for Selectivity factor (LOX IC50 value divided by LSDAO IC50 value): LOX vs LSDAO; for remaining activity at 4 µM: 4 µM inhibitor; for remaining activity at 4 µM / remaining activity at 7 µM / remaining activity at 20 µM / remaining activity at 100 µM / remaining activity at 500 µM / remaining activity at 40 µM: read-out: Average Percent Activity Remaining, LOX; for remaining activity at 7 µM: 7 µM inhibitor; for remaining activity at 20 µM: 20 µM inhibitor; for remaining activity at 100 µM: 100 µM inhibitor; for remaining activity at 500 µM: 500 µM inhibitor; for LOX k2 (range) / KI (inactivation): Kitz-Wilson analysis; for LOX k2 (range): rate constant for irreversible reaction; for KI (inactivation): reversible binding constant, read-out: LOX KI^-1 (range); for remaining activity at 40 µM: 40 µM inhibitor. The experiment is classed as biochemical, bovine. As to the method:
LOX was isolated from bovine aorta at 4 °C using slight modifications of previously published procedures. All steps were carried out at in 16 mM phosphate, pH 7.8 (buffer B). After blending the aorta in buffer B containing 400 mM NaCl and 1 mM EDTA to remove soluble contaminants, the enzyme was extracted with buffer B containing 4 M urea and 1 mM EDTA. The crude enzyme extract was filtered, diluted with an equal volume of buffer B to obtain a urea concentration of 2 M, and loaded onto a DEAE column. After washing with buffer B containing 400 mM NaCl, the enzyme was eluted with buffer B containing 400 mM NaCl and 6 M urea. The urea concentration was reduced to 4 M by adding buffer B, and the solution was added to a slurry of ceramic hydroxyapatite in buffer B containing 4 M urea. After stirring, the supernatant was removed by filtration and dialyzed overnight against buffer B. The solution was added to a slurry of ceramic hydroxyapatite in buffer B, washed with small portions of 1 M phosphate and then buffer B, and then eluted with buffer B containing 6 M urea and 500 mM NaCl. After concentration to about 20 mL, the protein was applied to a Sephacryl S-200 gel filtration column preequilibrated with buffer B containing 50 mM NaCl, 1 mM EDTA, and 6 M urea and eluted with the same buffer. Active fractions were concentrated to 1 mL. Total protein concentration for 6 M urea solutions[33] was determined by its absorption at 280 nm using a molar extinction coefficient of 8.39 × 10^4 M^−1 cm ^−1.
(§1) The activity assay is adopted from the method described by Palamakumbura et al.[35]. Enzyme and inhibitor were incubated at 37 °C for the desired inhibition time, diluted into the assay mixture, and analyzed by fluorescence (Agilent Technologies Cary Eclipse Fluorescence Spectrometer, Cary Eclipse Software, 37 °C, λex = 568 and λem = 581 nm). The assay was carried out in boric acid buffer (50 mM, pH 8.2) with 1.2 M urea for LOX or in phosphate buffer (0.1 M, pH = 7.0) for LSDAO. The final reagent concentrations in the assay mixture were 10 mM cadaverine, 10 μM Amplex UltraRed (Life Technologies, Carlsbad, CA), and 1 U/mL horse radish peroxidase (Amresco, Solon, OH).
(§2) The enzyme activity, which is proportional to the rate of increase in fluorescence, was measured for each experiment. Residual activity was calculated by dividing each rate by a maximum rate determined in the absence of inhibitor such that [residual activity] = ([rate with inhibitor] – [baseline rate])/([maximum rate] – [baseline rate]). […] The residual activities from replicate experiments were averaged. For each inhibitor concentration, log([average residual activity]) was plotted against inhibition time. Linear lines of best fit forced through the origin were calculated for each data set using Graphpad Prism 5.0b (La Jolla, CA). For each inhibitor, the slopes of these lines (min^−1) were plotted as –1/slope against 1/[inhibitor concentration] to produce a Kitz–Wilson plot.
(§3) To quantify the selectivity of each inhibitor, we defined a numerical “selectivity factor” as the inhibitor's IC50 value for LOX divided by its IC50 value for LSDAO (Figure 3(C)).

Experiment [3] has as its target T2, lentil seedling diamine oxidase (LSDAO) (Lens culinaris, UniProt P49252).
T2 construct: Eight-day-old lentil seedlings (Lens esculenta) were blended and extracted; from tissue; host or cells: eight-day-old lentil seedlings (Lens esculenta)
T2 sequence (P49252 19-667): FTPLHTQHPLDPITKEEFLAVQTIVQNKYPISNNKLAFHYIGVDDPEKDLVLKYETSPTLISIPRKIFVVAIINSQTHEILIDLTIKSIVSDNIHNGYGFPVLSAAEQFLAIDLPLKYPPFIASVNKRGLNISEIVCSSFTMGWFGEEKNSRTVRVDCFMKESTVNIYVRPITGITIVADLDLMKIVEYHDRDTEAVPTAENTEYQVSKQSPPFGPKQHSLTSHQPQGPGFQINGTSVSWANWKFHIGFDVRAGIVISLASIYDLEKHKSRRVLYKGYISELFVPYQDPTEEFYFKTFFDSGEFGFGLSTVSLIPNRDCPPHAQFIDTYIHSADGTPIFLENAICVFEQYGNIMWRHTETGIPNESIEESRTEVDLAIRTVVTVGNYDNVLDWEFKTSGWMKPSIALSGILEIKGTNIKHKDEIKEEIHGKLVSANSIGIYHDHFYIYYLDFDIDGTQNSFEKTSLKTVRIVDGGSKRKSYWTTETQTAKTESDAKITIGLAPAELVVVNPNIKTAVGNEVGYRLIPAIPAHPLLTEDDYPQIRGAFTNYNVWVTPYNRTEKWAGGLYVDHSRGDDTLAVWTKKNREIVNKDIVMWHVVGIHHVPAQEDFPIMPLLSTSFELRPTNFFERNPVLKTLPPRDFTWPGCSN
Briefly: LSDAO activity assay (Amplex UltraRed/HRP fluorescence) after preincubation of enzyme with inhibitor. The experiment is classed as biochemical. On the procedure: The LSDAO extraction process was carried out at 4 °C according to the method of Floris et al.[30] with slight modifications. Eight-day-old lentil seedlings (Lens esculenta) were blended and extracted with phosphate buffer (5 mM, pH 6.0, buffer A). Ammonium sulfate (230 g/L, 40% saturation) was used to precipitate contaminants, and then additional ammonium sulfate (125 g/L, 60% saturation) was used to precipitate the LSDAO. The crude precipitate was redissolved, dialyzed against buffer A, applied to a DEAE column, and eluted with buffer A. Active fractions were adjusted to pH 6.5, applied to a CM resin column, and eluted with 5 mM phosphate buffer, pH 6.5. Active fractions were concentrated and the buffer was changed to 10 mM phosphate, pH 7.0 before the protein was applied to a Sephacryl S-300 column and eluted with the same buffer. The concentration of the LSDAO dimer was determined from its absorption at 278 nm in 0.1 M phosphate buffer[31] using a molar extinction coefficient of 2.45 × 10^5 M^−1 cm^−1.
as §1, §2, §3
From the slopes and y-intercepts of these lines, the kinetic parameters KI (the reversible binding constant) and k2 (the rate constant for irreversible reaction) (Figure 5(A)) can be calculated.

Where [4] appears, read: Kitz-Wilson plot, pH 8.0 and 37 °C.
Setting [5] is: 10-min preincubation, 37 °C; read-out: IC50 LSDAO.
[6] abbreviates: 4 min, read-out: Average Percent Activity Remaining, LSDAO.
The mark [7] stands for this setting: 10 min, read-out: Average Percent Activity Remaining, LSDAO.
Setting [8] is: Kitz-Wilson analysis, rate constant for irreversible reaction.
[9] abbreviates: Kitz-Wilson analysis, reversible binding constant; read-out: LSDAO KI^-1 (range).

Several values for one entry are separate records, joined by “and”; a condition that tells them apart may be missing. Equal entries are not always repeated. Where two headings read alike, the source gives them in different places. Some results are limits rather than exact numbers.

On to `N#CCCN` [compound 2, β-aminopropionitrile], for which, in experiment [1] (10 μM, 2-h incubation), the “Inhibition of LOX at 10 μM” value is “full inhibition”. For the same compound, the IC50 in experiment [1] (2-h incubation) is 0.2 µM. Also, in experiment [1] (setting [4]), the KI (inactivation) is 6 µM and the “k2 LOX” value was 0.16 min⁻¹.
On to `CCCCCC(=O)NN` [compound 3], for which, in experiment [2], the IC50 is 20 µM; the “Selectivity factor (LOX IC50 value divided by LSDAO IC50 value)” value came to 10; the “LOX k2 (range)” value is 0.40 (0.23–1.4) min^-1 and 0.4 min^-1 and 0.40 min^-1; the KI (inactivation) stood at 200 µM. Also, in experiment [2] (4 min), the remaining activity at 4 µM stood at 93%, the remaining activity at 7 µM was 78%, the remaining activity at 20 µM was determined as 69% and the remaining activity at 100 µM turned out to be 27%. Besides, the remaining activity at 500 µM in experiment [2] (4 min) worked out at 8%. Besides, in experiment [2] (10 min), the remaining activity at 4 µM came out at 84%, the remaining activity at 7 µM is 75%, the remaining activity at 20 µM amounted to 48% and the remaining activity at 100 µM turned out to be 3%. Moreover, in experiment [2] (compared to phenylhydrazine), the “fold lower affinity for LOX than phenylhydrazine” value stood at 3 fold. Besides, the IC50 in experiment [3] (setting [5]) was found to be 2 µM. Moreover, in experiment [3] (setting [6]), the remaining activity at 1 µM was 90%, the remaining activity at 2 µM was found to be 80%, the remaining activity at 4 µM is 71% and the remaining activity at 8 µM was determined as 54%. Further, in experiment [3] (setting [6]), the remaining activity at 14 µM turned out to be 40%, the remaining activity at 20 µM was 33%, the remaining activity at 40 µM was found to be 4% and the remaining activity at 500 µM is 0.7%. In experiment [3] (setting [7]), the remaining activity at 1 µM was determined as 76%, the remaining activity at 2 µM amounted to 52%, the remaining activity at 4 µM came out at 33% and the remaining activity at 8 µM is 13%. Also, in experiment [3] (setting [7]), the remaining activity at 14 µM worked out at 8% and the remaining activity at 20 µM was 4%. In addition, in experiment [3] (setting [8]), the “LSDAO k2 (range)” value is 0.67 (0.37–3.3) min^-1 and 0.7 min^-1 and 0.67 min^-1. The KI (inactivation) in experiment [3] (setting [9]) was 50 µM and 54 µM.
For the compound `CCCCCCCNN` [compound 4], in experiment [2], the IC50 came out at 40 µM; the “Selectivity factor (LOX IC50 value divided by LSDAO IC50 value)” value worked out at 1300; the “LOX k2 (range)” value is 0.079 (0.073–0.087) min^-1 and 0.07–0.09 min^-1 and 0.079 min^-1; the KI (inactivation) was found to be 57 µM. Further, in experiment [2] (4 min), the remaining activity at 7 µM worked out at 89%, the remaining activity at 20 µM is 82% and the remaining activity at 100 µM is 59%. For the same compound, in experiment [2] (10 min), the remaining activity at 7 µM worked out at 83%, the remaining activity at 20 µM was 63% and the remaining activity at 100 µM was found to be 30%. In experiment [3], the midpoint of inhibition, the IC50, lay at 0.03 µM. In addition, in experiment [3] (setting [6]), the remaining activity at 0.03 µM amounted to 81%, the remaining activity at 0.08 µM came out at 60%, the remaining activity at 0.1 µM was found to be 43% and the remaining activity at 0.2 µM is 22%. Besides, in experiment [3] (setting [6]), the remaining activity at 0.5 µM was 1% and the remaining activity at 1 µM was determined as 1%. Also, in experiment [3] (setting [7]), the remaining activity at 0.03 µM came out at 45%, the remaining activity at 0.08 µM is 15%, the remaining activity at 0.1 µM was determined as 7% and the remaining activity at 0.2 µM came to 2%. Besides, the “LSDAO k2 (range)” value in experiment [3] (setting [8]) was 1.0 (0.75–1.6) min^-1 and 1.0 min^-1. The KI (inactivation) in experiment [3] (read-out: LSDAO KI^-1 (range); Kitz-Wilson analysis, reversible binding constant) turned out to be 0.9 µM.
Regarding `CCCCNC(=O)NN` [compound 5], in experiment [2], the IC50 is 100 µM, the “Selectivity factor (LOX IC50 value divided by LSDAO IC50 value)” value was found to be 25, the “LOX k2 (range)” value was > 0.50 min⁻¹ and the KI (inactivation) was > 1000 µM. Also, in experiment [2] (4 min), the remaining activity at 40 µM stood at 93%, the remaining activity at 100 µM is 76% and the remaining activity at 500 µM came to 35%. Also, in experiment [2] (10 min), the remaining activity at 40 µM came to 78%, the remaining activity at 100 µM was determined as 52% and the remaining activity at 500 µM is 6%. For the same compound, the IC50 in experiment [3] (setting [5]) worked out at 4 µM. In experiment [3] (setting [6]), the remaining activity at 1 µM was 89%, the remaining activity at 2 µM is 78%, the remaining activity at 4 µM was 69% and the remaining activity at 20 µM stood at 41%. The remaining activity at 100 µM in experiment [3] (setting [6]) turned out to be 1%. In experiment [3] (setting [7]), the remaining activity at 1 µM is 84%, the remaining activity at 2 µM is 71%, the remaining activity at 4 µM turned out to be 50% and the remaining activity at 20 µM was found to be 7%. Besides, in experiment [3] (setting [8]), the “LSDAO k2 (range)” value was 0.91 (0.50–5.0) min^-1 and 0.91 min^-1. For the same compound, in experiment [3] (setting [9]), the KI (inactivation) was found to be 112 µM.
